The target in one data set is T1, human PPARγ (Homo sapiens, UniProt P37231).
T1 construct: expressed in transfected cells; host or cells: HEK-293 (Human Embryonic Kidney) cells
T1 sequence (P37231 1-505): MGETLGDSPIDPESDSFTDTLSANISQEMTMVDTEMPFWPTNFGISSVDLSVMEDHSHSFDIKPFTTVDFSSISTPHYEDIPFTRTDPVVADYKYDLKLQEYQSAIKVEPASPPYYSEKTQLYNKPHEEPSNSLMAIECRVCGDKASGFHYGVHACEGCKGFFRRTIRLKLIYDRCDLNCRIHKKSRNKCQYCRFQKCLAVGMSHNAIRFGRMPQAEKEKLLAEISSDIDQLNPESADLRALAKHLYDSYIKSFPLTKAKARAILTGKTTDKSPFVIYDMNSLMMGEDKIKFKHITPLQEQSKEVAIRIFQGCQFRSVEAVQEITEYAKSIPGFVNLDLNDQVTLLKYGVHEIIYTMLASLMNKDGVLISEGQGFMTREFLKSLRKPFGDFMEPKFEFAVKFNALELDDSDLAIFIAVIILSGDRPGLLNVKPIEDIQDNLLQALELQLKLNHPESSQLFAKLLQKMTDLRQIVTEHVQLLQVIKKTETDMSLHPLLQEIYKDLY
Description: Human PPAR gamma agonist activity, GAL4-luciferase transactivation in transfected HEK-293 cells. The class given is cell-based. As to conditions: fold increase in gene transactivation (luciferase), 18 hours incubation, classes at 10 μM or 1 μM. Here is the method:
HEK-293 (Human Embryonic Kidney) cells were seeded at a density of 2.8×10^5 cells/well in a 6 well plate in DMEM +10% delipidated FBS medium and incubated at 37° C., 5% CO2. At 70-80% confluency cells were transfected with human pCDNA3.1E˜PPARγ+pGL2˜GAL4x5˜Luc+pADV plasmids for 3 hours (ratio 2:0.25:1.25 μg/well). The transfection medium was then replaced with fresh medium and cells were incubated for 48 hours.
Varying final concentrations of compounds (vehicle=0.1% DMSO) of the invention were prepared in medium (50 μl/well) and added to the wells in a 96 well plate. Transfected cells were harvested and pelleted by centrifugation. The cell pellet was resuspended in medium and cells counted. 10,000 cells/well were added to the 96 well plate containing compounds of the invention and incubated for 18 hours. Luminescence produced following agonism of the PPAR gamma receptor was determined using Packard luciferase substrate reagent (100 μl/well). Light emission was quantified by counting SPC mode using a Top Count. Fold activation was calculated using the following formula: […]
All compounds show activity as PPAR gamma agonists at 30 μM. Key for relative activity: • *<8 fold increase in gene transactivation with 10 μM • **>8 fold increase in gene transactivation with 10 μM • ***>8 fold increase in gene transactivation with 1 μM.

Data set [1] has as its system TS induced BAL neutrophil influx. Description: Pre-clinical mouse model of COPD inflammation (tobacco smoke induced pulmonary inflammation), BAL neutrophil counts. The class given is in vivo. Particulars: mice; for Inhibition of TS induced BAL neutrophil influx: BAL 24 h after final TS; for TS induced influx of neutrophils in the BAL (in words): administered by a surrogate route for inhalation (intra-nasal). How it is done: Protocols for the exposure of mice to TS, obtaining bronchoalveolar lavage (BAL), preparation of cytospin slides for differential cell counts are as outlined below.
In this exposure protocol, mice were exposed in groups of 5 in individual clear polycarbonate chambers (27 cm×16 cm×12 cm). The TS from the cigarettes was allowed to enter the exposure chambers at a flow rate of 100 mL/min. In order to minimize any potential problems caused by repeated exposure to a high level of TS (6 cigarettes), the exposure of the mice to TS was increased gradually over the exposure period to a maximum of 6 cigarettes. The exposure schedule used for 4 days was as follows:
A further group of mice was exposed to air on a daily basis for an equivalent length of time as controls (no TS exposure).
Bronchoalveolar lavage was performed as follows: the trachea was cannulated using a Portex nylon intravenous cannula (pink luer fitting) shortened to approximately 8 mm. Phosphate buffered saline (PBS) was used as the lavage fluid. A volume of 0.4 mL was gently instilled and withdrawn 3 times using a 1 mL syringe and then placed in an Eppendorf tube and kept on ice prior to subsequent determinations.
Lavage fluid was separated from cells by centrifugation and the supernatant decanted and frozen for subsequent analysis. The cell pellet was re-suspended in a known volume of PBS and total cell numbers calculated by counting a stained (Turks stain) aliquot under a microscope using a haemocytometer.
The residual cell pellet was diluted to approximately 10^5 cells per mL. A volume of 500 μL was placed in the funnel of a cytospin slide and centrifuged for 8 min at 800 rpm. The slide was air dried and stained using ‘Kwik-Diff’ solutions (Shandon) as per the proprietary instructions. When dried and cover-slipped, differential cells were counted using light microscopy. Up to 400 cells were counted by unbiased operator using light microscopy. Cells were differentiated using standard morphometric techniques.
Mice were dosed intra-nasally (surrogate for oral inhalation) with vehicle (0.2% tween 80 in saline), Example 1 (0.1 mg/kg), Example 10 (0.1 mg/kg), Example 10 (0.03 mg/kg), or Example 10 (0.01 mg/kg), at 3 hours prior to tobacco smoke exposure each day. The control group of mice received vehicle 3 hrs prior to being exposed to air daily for a maximum of 50 minutes per day. BAL was performed 24 h following the final TS exposure.
In a separate experiment, mice were dosed intra-nasally (surrogate for oral inhalation) with either vehicle (0.2% tween 80 in saline), Example 7 (0.1 mg/kg), Compound 7 (0.03 mg/kg), Example 15 (0.1 mg/kg), or Example 15 (0.03 mg/kg), 1 hour prior to tobacco smoke exposure each day. The control group of mice received vehicle 1 hr prior to being exposed to air daily for a maximum of 50 minutes per day. BAL was performed 24 h following the final TS exposure.
All results are presented as individual data points for each animal and the mean value was calculated for each group. Since tests for normality were positive the data was subjected to a one way analysis of variance test (ANOVA), followed by a Bonferroni correction for multiple comparisons in order to test for significance between treatment groups. A “p” value of <0.05 was considered to be statistically significant. Percentage inhibitions were automatically calculated within the Excel spreadsheets for the cell data using the formula below:
[formula] Inhibition data for other parameters were calculated manually using the above formula.

A short description of data set [2]: In vivo pharmacokinetic study, plasma AUC after oral and i.v. dosing. Details: species or system male Wistar rats. Particulars: for plasma AUC following i.v. dosing (in words) / oral bioavailability (in words) / AUC: rat; for oral bioavailability (in words): oral vs i.v. plasma AUC; for AUC: plasma. Here is the method:
The suitability of the compounds exemplified in Examples 7, 10 and 15 above for inhalation for the treatment of lung diseases was examined by standard in vivo pharmacokinetic studies using male Wistar rats as known in the art. […] A single 1 mg/kg dose of Example 7, Example 10 and Example 15 was administered in 10% DMSO, 10% Cremophor ELP, 10% PEG 400, 10% EtOH and 60% Milli Q Water by the intravenous (IV) route and plasma samples taken 15 minutes, 30 minutes, 1 hour, 2 hours, 3 hours, 5 hours, 8 hours, 10 hours and 24 hours. Concentrations of Example 7, Example 10 and Example 15 in the various plasma samples were determined using standard analytical procedures.
Standard pharmacokinetic parameters following IV or oral dosing were calculated from the plasma concentration data, including Area under the curve (AUC), maximum plasma concentration (Cmax), time of maximum plasma concentration (Tmax), Elimination time (Kel) and plasma half-life (T½).
Compounds suitable for inhalation for the treatment of lung diseases have low plasma AUC following i.v. dosing indicating reduced likelihood of systemic side effects. Compounds suitable for inhalation for the treatment of lung diseases also have low oral bioavailability indicated by a much lower plasma AUC following oral dosing as that achieved by i.v. dosing. Low oral bioavailability leads to only a small fraction of the swallowed drug following inhalation being absorbed into the plasma, further reducing the likelihood of systemic side effects.

For data set [3] the following is noted: rat, cited from earlier work.
The mark [4] stands for this setting: 0.03 mg/kg intra-nasally 1 hour prior to TS exposure each day for 4 days.
[5] abbreviates: 0.1 mg/kg intra-nasally 1 hour prior to TS exposure each day for 4 days.
The mark [6] stands for this setting: iv, male Wistar rats, single 1 mg/kg i.v. dose, read-out: Plasma AUC following 1 mg/kg i.v. dose.
The mark [7] stands for this setting: male Wistar rats, derived from 5 mg/kg oral dose PK data, read-out: Plasma AUC following 1 mg/kg oral dose.

SMILES strings stand for the structures. Where two headings read alike, the source gives them in different places. Marks after values point to notes of the source that are not given here.

Take `O=S(=O)(Nc1cc(Cl)c(Oc2cnn(-c3ccc(F)cc3F)c2)c(Cl)c1)c1ccc(Cl)cc1Cl` [Example 3]: the PPARγ agonist activity entry on human PPARγ is reported as “*** (>8 fold increase in gene transactivation with 1 μM)”.
In the case of `O=S(=O)(Nc1cc(Cl)c(Oc2cnn(-c3ccc(F)cc3)c2)c(Cl)c1)c1ccc(Cl)cc1Cl` [Example 4], on human PPARγ, the PPARγ agonist activity entry is “*** (>8 fold increase in gene transactivation with 1 μM)”.
Regarding `O=S(=O)(Nc1ccc(Oc2cnn(-c3ccc(F)cc3)c2)c(Cl)c1)c1ccc(Cl)cc1Cl` [Example 5], on human PPARγ, the PPARγ agonist activity result is given as “*** (>8 fold increase in gene transactivation with 1 μM)”.
Take `O=S(=O)(Nc1ccc(Oc2cnn(-c3ccc(Cl)cc3)c2)c(Cl)c1)c1ccc(Cl)cc1Cl` [Example 6]: on human PPARγ, the PPARγ agonist activity entry is recorded as “*** (>8 fold increase in gene transactivation with 1 μM)”.
Regarding `O=S(=O)(Nc1ccc(Oc2cnn(-c3ccc(F)c(Cl)c3)c2)c(Cl)c1)c1ccc(Cl)cc1Cl` [Example 7], on human PPARγ, the PPARγ agonist activity entry is “** (>8 fold increase in gene transactivation with 10 μM)”. The entries for the “Inhibition of TS induced BAL neutrophil influx” value (from here on “Inhibition”) in data set [1] (setting [4]) and in data set [1] (setting [5]) were 37% and 64%, respectively. Besides, in data set [1], the “TS induced influx of neutrophils in the BAL (in words)” value (shortened to “TS induced influx of neutrophils”) is “significantly inhibit”. The “plasma AUC following i.v. dosing (in words)” value in data set [2] is on record as “low”. Further, the “oral bioavailability (in words)” value in data set [2] is recorded as “low”. Besides, the AUC stood at 1080 ± 240 ng·h/mL in data set [2] (setting [6]) and 40 ± 8 ng·h/mL in data set [2] (setting [7]).
Consider `Cc1ccc(S(=O)(=O)Nc2ccc(Oc3cnn(-c4ccc(F)cc4)c3)c(Cl)c2)cc1` [Example 8], for which the PPARγ agonist activity entry on human PPARγ was “** (>8 fold increase in gene transactivation with 10 μM)”.
For the compound `Cc1cc(NS(=O)(=O)c2ccc(Cl)cc2Cl)ccc1Oc1cnn(-c2ccc(F)cc2)c1` [Example 9], the PPARγ agonist activity result on human PPARγ was “*** (>8 fold increase in gene transactivation with 1 μM)”.
On to `Cc1ccc(-n2cc(Oc3ccc(NS(=O)(=O)c4ccc(Cl)cc4Cl)cc3)cn2)c(C)c1` [Example 10], for which the PPARγ agonist activity entry at human PPARγ was “*** (>8 fold increase in gene transactivation with 1 μM)”. In addition, the “Inhibition” value in data set [1] (0.01 mg/kg intra-nasally 3 hours prior to TS exposure each day for 4 days) was found to be 42%; in data set [1] (0.03 mg/kg intra-nasally 3 hours prior to TS exposure each day for 4 days), 50%; in data set [1] (0.1 mg/kg intra-nasally 3 hours prior to TS exposure each day for 4 days) it was 72%. For the same compound, the “TS induced influx of neutrophils” value in data set [1] is reported as “significantly inhibit”. Moreover, the “Plasma AUC following 1 mg/kg oral dose” value in data set [2] (male Wistar rats, oral gavage (5 mg/kg given), limit of detection was 5 ng/ml) is “None”. The “plasma AUC following i.v. dosing (in words)” value in data set [2] is given as “low”. Further, the “oral bioavailability (in words)” value in data set [2] is “low”. In data set [2] (setting [6]), the AUC is 210 ± 60 ng·h/mL.
`Cc1ccc(-n2cc(Oc3ccc(NS(=O)(=O)c4ccc(C)cc4)cc3)cn2)cc1` [Example 11]: at human PPARγ, the PPARγ agonist activity result was “* (<8 fold increase in gene transactivation with 10 μM)”.
Still for that read-out and setting: the result for `O=S(=O)(Nc1ccc(Oc2cnn(-c3ccc(F)cc3)c2)c(Cl)c1)c1ccccc1` [Example 12] reads “* (<8 fold increase in gene transactivation with 10 μM)”; that for `O=S(=O)(Nc1ccc(Oc2cnn(-c3ccccc3)c2)c(Cl)c1)c1ccc(Cl)cc1Cl` [Example 13], “*** (>8 fold increase in gene transactivation with 1 μM)”; that for `Cc1ccc(S(=O)(=O)Nc2ccc(Oc3cnn(-c4ccc(C)cc4C)c3)cc2)cc1` [Example 14], “* (<8 fold increase in gene transactivation with 10 μM)”.
As to `Cc1ccc(S(=O)(=O)Nc2ccc(Oc3cnn(-c4ccc(C)cc4C)c3)c(Cl)c2)cc1` [Example 15], the PPARγ agonist activity entry on human PPARγ is “** (>8 fold increase in gene transactivation with 10 μM)”. Further, the “Inhibition” value in data set [1] (setting [4]) came to 66%; in data set [1] (setting [5]) it was 69%. In addition, the “TS induced influx of neutrophils” value in data set [1] is reported as “significantly inhibit”. Moreover, the “plasma AUC following i.v. dosing (in words)” value in data set [2] was “low”. Moreover, the “oral bioavailability (in words)” value in data set [2] is “low”. Further, the values for the AUC in data set [2] (setting [6]) and in data set [2] (setting [7]) were 170 ± 60 ng·h/mL and 1 ± 2 ng·h/mL, respectively.
`CN(CCOc1ccc(CC2SC(=O)NC2=O)cc1)c1ccccn1` (stereo not drawn) [Rosiglitazone]: the “plasma AUC following an i.v. dose (in words)” value in data set [3] (i.v.) is “high”. Also, the “oral bioavailability (in words)” value in data set [3] (oral vs i.v. plasma AUC) is “high”. The “Plasma AUC following 1 mg/kg i.v. dose” value in data set [3] (FDA Pharmacology review data, derived from 0.4 mg/kg i.v. dose PK data) is reported as 13.75*** μg*hr/ml. Moreover, the “Plasma AUC following 1 mg/kg oral dose” value in data set [3] (FDA Pharmacology review data, derived from 0.4 mg/kg oral dose PK data) was 14.28*** μg*hr/ml.

The values above are taken from patent US8362064B2, “Sulfonamide compounds for the treatment of respiratory disorders” (Pulmagen Theraputics (Inflammation) Limited, priority 2008, dated 2013).
